Data taken from publication PMC6749218, “Structure-Based Pharmacophore Design and Virtual Screening for Novel Tubulin Inhibitors with Potential Anticancer Activity” (Molecules, 2019).

Test system: T1, tubulin
T1 construct: gene TUBB2B
Assay: turbidimetric tubulin polymerization assay ([…] nm)
Assay type: biochemical
Conditions: tubulin 10 µM

SMILES | IC50 [µM]
COc1ccc(OC)c(/C=C/C(=O)c2ccc(OC)cc2OC)c1 [compound 1, hit 1] | 3.7 ± 0.5
